Test system: patients after acute myocardial infarction
Test: Life quality, Seattle Angina Questionnaire (SAQ), same clinical trial
Assay type: in vivo, human
From the text: 3508 patients who were in accordance with the diagnostic standards of AMI for 28 days to 2 years and differentiated as Qi deficiency and blood stagnation syndrome by TCM were studied. 0.5 g Chinese medicine composition prepared by the method of EXAMPLE 1 (Coded as QSYQ) was administrated half an hour after meal, 3 times per day.
There were 19 questions in the Seattle angina questionnaire (SAQ), including 5 parts: physical limitation (PL), anginal stability (AS), anginal frequency (AF), treatment satisfaction (TS) and disease perception (DP). After being given necessary explanation by doctors, the questions were answered independently by patients.
They included the overall survival time, angina pectoris score, TCM symptom score and life quality score, where angina pectoris score, TCM symptom score and life quality score were evaluated at randomization, in 1st, 3rd, 6th, 9th, 12th month after treatment and 18th month after follow-up.
All evaluation results of SAQ were described during the period of observation, and Wilcoxon rank sum test was used for inter-group comparison.
The evaluation results in the SAQ were depicted in different observations, and inter-group comparison was tested by Wilcoxon Rank-sum test.

SMILES: CC(=O)Oc1ccccc1C(=O)O [Control group, aspirine]
- SAQ Question 1-5: Slightly limited, percent of patients (12 months after treatment, PP): (29.70%)
- SAQ Question 1-9: Mildly limited, % of cases (12 months after treatment, PP): (20.07%)
- SAQ Question 1-9: Mildly limited, cases (12 months after treatment, PP): 278
- SAQ Question 1-9: Moderately limited, % of cases (12 months after treatment, PP): (20.87%)
- SAQ Question 1-9: Moderately limited, cases (12 months after treatment, PP): 289
- SAQ Question 1-9: Not limited, % of cases (12 months after treatment, PP): (5.05%)
- SAQ Question 1-9: Not limited, cases (12 months after treatment, PP): 70
- SAQ Question 1-9: Other reasons, % of cases (12 months after treatment, PP): (6.28%)
- SAQ Question 1-9: Other reasons, cases (12 months after treatment, PP): 87
- SAQ Question 1-9: Severely limited, % of cases (12 months after treatment, PP): (29.75%)
- SAQ Question 1-9: Severely limited, cases (12 months after treatment, PP): 412
- SAQ Question 1-9: Slightly limited, % of cases (12 months after treatment, PP): (17.98%)
- SAQ Question 1-9: Slightly limited, cases (12 months after treatment, PP): 249
- SAQ 2nd question: Clearly increased, % of cases (Baseline, FAS): (3.17%)
- SAQ 2nd question: Clearly increased, cases (Baseline, FAS): 55
- SAQ 2nd question: Clearly reduced, % of cases (Baseline, FAS): (12.46%)
- SAQ 2nd question: Clearly reduced, cases (Baseline, FAS): 216
- SAQ 2nd question: Same, % of cases (Baseline, FAS): (62.09%)
- SAQ 2nd question: Same, cases (Baseline, FAS): 1076
- SAQ 2nd question: Slightly increased, % of cases (Baseline, FAS): (6.92%)
- SAQ 2nd question: Slightly increased, cases (Baseline, FAS): 120
- SAQ 2nd question: Slightly reduced, % of cases (Baseline, FAS): (15.35%)
- SAQ 2nd question: Slightly reduced, cases (Baseline, FAS): 266
- SAQ 3rd question: 1-2 times per week, % of cases (Baseline, FAS): (15.35%)
- SAQ 3rd question: 1-2 times per week, cases (Baseline, FAS): 266
- SAQ 3rd question: 1-3 times per day, % of cases (Baseline, FAS): (6.92%)
- SAQ 3rd question: 1-3 times per day, cases (Baseline, FAS): 120
- SAQ 3rd question: <1 time per week, % of cases (Baseline, FAS): (12.46%)
- SAQ 3rd question: <1 time per week, cases (Baseline, FAS): 216
- SAQ 3rd question: No onset, % of cases (Baseline, FAS): (0.00%)
- SAQ 3rd question: No onset, cases (Baseline, FAS): 0
- SAQ 3rd question: ≧3 times per week, % of cases (Baseline, FAS): (62.09%)
- SAQ 3rd question: ≧3 times per week, cases (Baseline, FAS): 1076
- SAQ 3rd question: ≧4 times per day, % of cases (Baseline, FAS): (3.17%)
- SAQ 3rd question: ≧4 times per day, cases (Baseline, FAS): 55
- SAQ Question 1-3: Mildly limited, number of patients (Baseline, FAS): 149
- SAQ Question 1-3: Mildly limited, percent of patients (Baseline, FAS): (8.57%)
- SAQ Question 1-3: Moderately limited, number of patients (Baseline, FAS): 53
- SAQ Question 1-3: Moderately limited, percent of patients (Baseline, FAS): (3.05%)
- SAQ Question 1-3: Not limited, number of patients (Baseline, FAS): 1170
- SAQ Question 1-3: Not limited, percent of patients (Baseline, FAS): (67.32%)
- SAQ Question 1-3: Other reasons, number of patients (Baseline, FAS): 11
- SAQ Question 1-3: Other reasons, percent of patients (Baseline, FAS): (0.63%)
- SAQ Question 1-3: Severely limited, number of patients (Baseline, FAS): 15
- SAQ Question 1-3: Severely limited, percent of patients (Baseline, FAS): (0.86%)
- SAQ Question 1-3: Slightly limited, number of patients (Baseline, FAS): 340
- SAQ Question 1-3: Slightly limited, percent of patients (Baseline, FAS): (19.56%)
- SAQ Question 1-4: Mildly limited, number of patients (Baseline, FAS): 402
- SAQ Question 1-4: Mildly limited, percent of patients (Baseline, FAS): (23.21%)
- SAQ Question 1-4: Moderately limited, number of patients (Baseline, FAS): 208
- SAQ Question 1-4: Moderately limited, percent of patients (Baseline, FAS): (12.01%)
- SAQ Question 1-4: Not limited, number of patients (Baseline, FAS): 495
- SAQ Question 1-4: Not limited, percent of patients (Baseline, FAS): (28.58%)
- SAQ Question 1-4: Other reasons, number of patients (Baseline, FAS): 14
- SAQ Question 1-4: Other reasons, percent of patients (Baseline, FAS): (0.81%)
- SAQ Question 1-4: Severely limited, number of patients (Baseline, FAS): 59
- SAQ Question 1-4: Severely limited, percent of patients (Baseline, FAS): (3.41%)
- SAQ Question 1-4: Slightly limited, number of patients (Baseline, FAS): 554
- SAQ Question 1-4: Slightly limited, percent of patients (Baseline, FAS): (31.99%)
- SAQ Question 1-5: Mildly limited, number of patients (Baseline, FAS): 357
- SAQ Question 1-5: Mildly limited, percent of patients (Baseline, FAS): (20.58%)
- SAQ Question 1-5: Moderately limited, number of patients (Baseline, FAS): 238
- SAQ Question 1-5: Moderately limited, percent of patients (Baseline, FAS): (13.72%)
- SAQ Question 1-5: Not limited, number of patients (Baseline, FAS): 567
- SAQ Question 1-5: Not limited, percent of patients (Baseline, FAS): (32.68%)
- SAQ Question 1-5: Other reasons, number of patients (Baseline, FAS): 13
- SAQ Question 1-5: Other reasons, percent of patients (Baseline, FAS): (0.75%)
- SAQ Question 1-5: Severely limited, number of patients (Baseline, FAS): 53
- SAQ Question 1-5: Severely limited, percent of patients (Baseline, FAS): (3.05%)
- SAQ Question 1-5: Slightly limited, number of patients (Baseline, FAS): 507
- SAQ Question 1-5: Slightly limited, percent of patients (Baseline, FAS): (29.22%)
- SAQ Question 1-9: Mildly limited, % of cases (Baseline, FAS): (14.70%)
- SAQ Question 1-9: Mildly limited, cases (Baseline, FAS): 249
- SAQ Question 1-9: Moderately limited, % of cases (Baseline, FAS): (21.19%)
- SAQ Question 1-9: Moderately limited, cases (Baseline, FAS): 359
- SAQ Question 1-9: Not limited, % of cases (Baseline, FAS): (2.36%)
- SAQ Question 1-9: Not limited, cases (Baseline, FAS): 40

— patent publication US9211310B2, “Use of a Chinese medicine composition in preparing medicaments for treating secondary prevention of myocardial infarction” (TASLY PHARMACEUTICAL GROUP CO., LTD, priority 2010, dated 2015)
